Measured values as given in ChEMBL document CHEMBL2073779, “pH-dependent bidirectional transport of weakly basic drugs across Caco-2 monolayers: implications for drug-drug interactions” (Pharm Res, 2003).

Molecular target: ATP-dependent translocase ABCB1 (Homo sapiens, UniProt P08183)
Test: TP_TRANSPORTER: transepithelial transport in Caco-2 cells
Format: functional, cell-based

Sequence of ATP-dependent translocase ABCB1 (P08183 whole entry): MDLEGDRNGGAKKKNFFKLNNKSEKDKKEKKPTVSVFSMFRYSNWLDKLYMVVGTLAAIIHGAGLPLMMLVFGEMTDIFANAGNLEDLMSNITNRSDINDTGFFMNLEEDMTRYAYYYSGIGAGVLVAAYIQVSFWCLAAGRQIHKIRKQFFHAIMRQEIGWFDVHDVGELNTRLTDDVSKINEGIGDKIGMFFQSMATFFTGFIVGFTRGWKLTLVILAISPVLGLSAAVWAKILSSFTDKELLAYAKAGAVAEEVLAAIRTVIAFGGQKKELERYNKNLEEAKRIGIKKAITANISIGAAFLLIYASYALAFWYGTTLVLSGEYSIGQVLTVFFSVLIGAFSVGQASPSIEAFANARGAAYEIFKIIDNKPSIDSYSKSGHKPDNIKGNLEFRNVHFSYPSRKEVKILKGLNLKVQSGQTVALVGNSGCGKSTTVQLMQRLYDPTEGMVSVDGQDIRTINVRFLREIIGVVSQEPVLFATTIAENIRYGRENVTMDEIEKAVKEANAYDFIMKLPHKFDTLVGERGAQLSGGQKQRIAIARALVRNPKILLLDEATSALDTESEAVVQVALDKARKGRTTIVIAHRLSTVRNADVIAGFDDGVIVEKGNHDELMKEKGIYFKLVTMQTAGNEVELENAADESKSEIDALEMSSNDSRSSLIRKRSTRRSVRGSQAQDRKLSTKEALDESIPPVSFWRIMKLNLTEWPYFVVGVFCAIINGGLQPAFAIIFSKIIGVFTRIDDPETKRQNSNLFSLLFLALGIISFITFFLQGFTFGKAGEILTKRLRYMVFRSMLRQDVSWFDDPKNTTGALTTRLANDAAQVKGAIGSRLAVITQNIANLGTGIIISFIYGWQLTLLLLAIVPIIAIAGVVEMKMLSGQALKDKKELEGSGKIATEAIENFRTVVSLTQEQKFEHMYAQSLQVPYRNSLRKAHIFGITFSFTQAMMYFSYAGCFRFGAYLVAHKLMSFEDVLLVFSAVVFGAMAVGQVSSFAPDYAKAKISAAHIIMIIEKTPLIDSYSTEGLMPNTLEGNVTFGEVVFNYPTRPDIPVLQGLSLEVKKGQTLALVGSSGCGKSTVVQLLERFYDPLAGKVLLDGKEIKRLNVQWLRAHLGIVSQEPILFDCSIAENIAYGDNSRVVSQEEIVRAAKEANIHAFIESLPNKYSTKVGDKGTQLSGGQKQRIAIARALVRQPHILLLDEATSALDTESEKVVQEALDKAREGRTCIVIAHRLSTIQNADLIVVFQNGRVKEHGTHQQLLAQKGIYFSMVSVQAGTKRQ

| Structure (SMILES) | Activity |
| --- | --- |
| COCCc1ccc(OCC(O)CNC(C)C)cc1 (configuration not stated) [METOPROLOL] | is not a substrate [-] |
| C[C@H]1O[C@@H](O[C@H]2[C@@H](O)C[C@H](O[C@H]3[C@@H](O)C[C@H](O[C@H]4CC[C@@]5(C)[C@H](CC[C@@H]6[C@@H]5C[C@@H](O)[C@]5(C)[C@@H](C7=CC(=O)OC7)CC[C@]65O)C4)O[C@@H]3C)O[C@@H]2C)C[C@H](O)[C@@H]1O [DIGOXIN] | substrate [+] |
